According to patent US20250222028A1, “ENGINEERED IMMUNE CELL PLATFORM” (Cancer Research Technology Limited, priority 2022, published 2025):

How the values were obtained:
GLI1 [1] = test: GLI1 expression by qRT-PCR in NK-92 cells; format: cell-based, human; details: stimulated with anti-NKp46 mAb 4 hours, 100 μM, vs carrier control
Protocol: FIG. 5. L-type Cav channel agonists increase GLI1 expression in the human NK cell line NK-92 and promote specific tumour cell killing. (A) NK-92 cells were stimulated using an anti-NKp46 mAb for 4 hours in the presence of 10 μM FPL 64176, and GLI1 expression was assessed using qRT-PCR. Data is n=4 independent experiments. (B) NK-92 cells were stimulated using an anti-NKp46 mAb for 4 hours in the presence of 100 μM Bay K8644, and GLI1 expression was assessed using qRT-PCR. Data is n=3 independent experiments. (C) An LDH assay was performed to assess specific cell killing of K562 target cells at indicated effector to target ratios in the presence of 10 μM FPL 64176 (right-hand columns) or carrier control (left-hand columns). Error bars indicate SD. Data is from n=3 independent experiments.
To investigate whether L-type Cav channel agonists are also capable of enhancing GLI1 mRNA levels in the human NK cell line NK-92 (a non-Hodgkin's lymphoma cell line, expressing only Cav1.3), NK-92 cells were stimulated using an anti-NKp46 mAb (5 μg/mL) for 4 hours in the presence of either 10 μM FPL 64176 or 100 μM Bay K8644. For reference, Bay K8644 is a structural analogue of nifedipine, and acts as an L-type Cav channel agonist. GLI1 expression was assessed using qRT-PCR. […] These observations confirm that the GLI1-inducing effect of Cav agonists is not merely restricted to the compound FPL 64176. In particular, in NK cells.

EL-4 tumour cells = test: LDH cytotoxicity assay, OT-I CD8+ CTLs co-cultured with Ova peptide-pulsed EL-4 target cells; format: cell-based, murine; details: 1.25 mM BAPTA, LDH assay 3 h
Protocol: (§1) FIG. 1. L-type Cav channel agonists increase Gli1 expression and enhance specific cell killing by murine CD8+ CTLs. CD8^+ T cells were isolated from the spleen and inguinal lymph nodes of Rag2^−/− OT-I mice, and CTLs were generated. (A) Cells were restimulated on day 9/10 for 3 hours using plate-bound anti-CD3ε in the presence of indicated concentrations of FPL 64176 or carrier control. RNA was extracted and Gli1 expression was assessed by qRT-PCR. Data is n=3 independent experiments. us=unstimulated cells. (B) An LDH cytotoxicity assay was performed using OT-I CTLs. On day 7, CTLs were co-cultured with Ova peptide-pulsed EL-4 cells in the presence of 10 μM FPL 64176 (squares) or carrier control (circles). Data is n=4 independent experiments. (C) Updated experiment of (A). Data is now n=4 independent experiments. Data is normalised to Tbp as a reference gene. 0h=unstimulated cells. (D) Same data as (B) represented differently. […] Error bars indicate SD. p values were calculated using an unpaired two-tailed Student's t test (C) or a two-way ANOVA (B/D). * indicates p<0.05, ** indicates p<0.01, **** indicates p<0.0001.
FIG. 11. […] (A) Quantitative analysis of live cell numbers. […] (E) Quantitative analysis of live cell numbers. […]
To ensure that the use of L-type Cav agonist is not adversely affecting immune cells, general cell functions were assessed. […]

Gli1 [2] = test: Gli1 expression by qRT-PCR in anti-CD3ε-stimulated murine CD8+ CTLs; format: cell-based; details: anti-CD3ε restimulation 6 hours
Protocol: as §1
FIG. 2. FPL 64176 but not (R)-Baclofen nor Nefiracetam enhance Gli1 expression in murine CD8+ CTLs. Naïve CD8^+ T cells were isolated from the spleens of OT-I Rag2^−/− mice and CTLs were generated. Cells were restimulated using an anti-CD3ε mAb in the presence indicated concentrations of (A) FPL 64176, (B) (R)-Baclofen or (C) Nefiracetam (or carrier control). CTLs were pre-incubated with the relevant pharmacological agents for 40-50 mins prior to stimulation (ensuring sufficient time for the agents, e.g., FPL 64176, to enter the cell. Gli1 expression was assessed by qRT-PCR. Data is n=2 independent experiments. Error bars indicate SD.
To investigate a potential role for L-type Cav channel agonists in modulating CD8+ CTL activation and effector function, CD8+ T cells were isolated from the spleen and inguinal lymph nodes of Rag2−/− OT-I mice and CTLs were generated. […] OT-I mice bear a transgene encoding for a TCR that recognises a chicken ovalbumin (Ova) peptide fragment. Rag2−/− OT-I mice facilitate the isolation of naïve CD8+ T cell populations. Plates were coated using 2.5 μg/mL anti-CD3ε mAb and CD8+ CTLs were stimulated for 3 hours via the TCR in the presence of 5 or 10 μM FPL 64176, an L-type Cav channel agonist, or carrier control. Note that CD8+ CTLs were pre-incubated with FPL 64176 or carrier control for 40-50 mins before stimulation. Gli1 expression was assessed using qRT-PCR.
In brief, naïve CD8+ T cells were isolated from the spleen and inguinal lymph nodes of C57BL/6 wildtype mice and CTLs were generated. […] RNA was extracted from cells and Gli1 expression was assessed by qRT-PCR. […]

COC(=O)C1=C(C)NC(C)=C([N+](=O)[O-])C1c1ccccc1C(F)(F)F (stereo not shown) [Bay K8644]
GLI1 mRNA levels (GLI1 [1]): increased (almost two-fold)

O=C(O)CN(CC(=O)O)c1ccccc1OCCOc1ccccc1N(CC(=O)O)CC(=O)O [BAPTA]
immune cell killing (EL-4 tumour cells): depleted

NC[C@H](CC(=O)O)c1ccc(Cl)cc1 [(R)-Baclofen]
Gli1 expression following TCR activation (Gli1 [2]; indicated concentrations, vs carrier control (FIG. 2)): little effect

Cc1cccc(C)c1NC(=O)CN1CCCC1=O [Nefiracetam]
reduction of Gli1 expression (Gli1 [2]; vs carrier control (FIG. 2C)): around 50%
